Experimental data reported in patent US10537558B2 (Bantam Pharmaceutical, LLC, priority 2015, dated 2020).

Each compound was assayed on BJAB cells (assay: BJAB cell proliferation (Cell Titer Glo)). Conditions: Homo sapiens, read-out: EC50.
Assay type: cell-based
Procedure, shortened: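 BJAB cells exposed to serially diluted compounds (0.1% DMSO final) for about 72 h at 37 °C. Proliferation read by Cell Titer Glo luminescence as percent of untreated controls; EC50 from non-linear regression of dose-response data.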

**Q.** For `Cc1cc(-c2c(C)nn(-c3nc(-c4ccc(Cl)c(Cl)c4)c(SC(C)C)s3)c2C(=O)O)n(C)n1` [Compound 71, 2′-(4-(3,4-dichlorophenyl)-5-(isopropylthio)thiazol-2-yl)-2,5,5′-trimethyl-3,4′-bi(2H-pyrazole)-3′-carboxylic Acid], which EC50 is on record?
**A.** 10 to 25 µM

**Q.** `Cc1nn(-c2nc(-c3ccc(Cl)c(Cl)c3)c(SC(C)C)s2)c(C(=O)O)c1-c1cncnc1` [Compound 72, 1-(4-(3,4-dichlorophenyl)-5-(isopropylthio)thiazol-2-yl)-3-methyl-4-(pyrimidin-5-yl)-1H-pyrazole-5-carboxylic Acid] was tested. Which EC50 did it give?
**A.** 10 to 25 µM

**Q.** Which EC50 does the source give for `Cc1nn(-c2nc(-c3ccc(Cl)c(Cl)c3)c(SC(C)C)s2)c(C(N)=O)c1-c1cc(C(F)(F)F)cc(C(F)(F)F)c1` [Compound 73, 4-(3,5-bis(trifluoromethyl)phenyl)-1-(4-(3,4-dichlorophenyl)-5-(isopropylthio)thiazol-2-yl)-3-methyl-1H-pyrazole-5-carboxamide] here?
**A.** > 40 µM

**Q.** `Cc1cc(C)nc(-c2c(C)nn(-c3nc(-c4ccc(Cl)c(Cl)c4)c(SC(C)C)s3)c2C(=O)O)n1` [Compound 74, 1-(4-(3,4-dichlorophenyl)-5-(isopropylthio)thiazol-2-yl)-4-(4,6-dimethylpyrimidin-2-yl)-3-methyl-1H-pyrazole-5-carboxylic acid] was tested. Which EC50 did it give?
**A.** 25 to 50 µM

**Q.** With `Cc1nn(-c2nc(-c3ccc(Cl)c(Cl)c3)c(SC(C)C)s2)c(C(=O)NCc2ccccn2)c1-c1cc(C(F)(F)F)cc(C(F)(F)F)c1` [Compound 75, 4-(3,5-bis(trifluoromethyl)phenyl)-1-(4-(3,4-dichlorophenyl)-5-(isopropylthio)thiazol-2-yl)-3-methyl-N-(pyridin-2-ylmethyl)-1H-pyrazole-5-carboxamide] as the compound, how does the EC50 read?
**A.** > 40 µM

**Q.** With `Cc1nn(-c2nc(-c3ccc(Cl)c(Cl)c3)c(SC(C)C)s2)c(C(=O)N(C)CCO)c1-c1cc(C(F)(F)F)cc(C(F)(F)F)c1` [Compound 76, 4-(3,5-bis(trifluoromethyl)phenyl)-1-(4-(3,4-dichlorophenyl)-5-(isopropylthio)thiazol-2-yl)-N-(2-hydroxyethyl)-N,3-dimethyl-1H-pyrazole-5-carboxamide] as the compound, how does the EC50 read?
**A.** > 40 µM

**Q.** Which EC50 does the source give for `Cc1nn(-c2nc(-c3ccc(Cl)c(Cl)c3)c(SC(C)C)s2)c(C(=O)N(C)c2nnc(C(F)(F)F)s2)c1-c1cc(C(F)(F)F)cc(C(F)(F)F)c1` [Compound 77, 4-(3,5-bis(trifluoromethyl)phenyl)-1-(4-(3,4-dichlorophenyl)-5-(isopropylthio)thiazol-2-yl)-N,3-dimethyl-N-(5-(trifluoromethyl)-1,3,4-thiadiazol-2-yl)-1H-pyrazole-5-carboxamide] here?
**A.** > 40 µM

**Q.** `CCN(CC)C1CCN(C(=O)c2c(-c3cc(C(F)(F)F)cc(C(F)(F)F)c3)c(C)nn2-c2nc(-c3ccc(Cl)c(Cl)c3)c(SC(C)C)s2)C1` (centres unmarked) [Compound 78, (4-(3,5-bis(trifluoromethyl)phenyl)-1-(4-(3,4-dichlorophenyl)-5-(isopropylthio)thiazol-2-yl)-3-methyl-1H-pyrazol-5-yl)(3-(diethylamino)pyrrolidin-1-yl)methanone] was tested. Which EC50 did it give?
**A.** > 40 µM

**Q.** With `Cc1nn(-c2nc(-c3ccc(Cl)c(Cl)c3)c(SC(C)C)s2)c(C(=O)O)c1-c1cnccn1` [Compound 79, 1-(4-(3,4-dichlorophenyl)-5-(isopropylthio)thiazol-2-yl)-3-methyl-4-(pyrazin-2-yl)-1H-pyrazole-5-carboxylic Acid] as the compound, how does the EC50 read?
**A.** 10 to 25 µM

**Q.** Which EC50 does the source give for `Cc1cc(C#N)cc(-c2c(C)nn(-c3nc(-c4ccc(Cl)c(Cl)c4)c(SC(C)C)s3)c2C(=O)O)c1` [Compound 80, 4-(3-cyano-5-methylphenyl)-1-(4-(3,4-dichlorophenyl)-5-(isopropylthio)thiazol-2-yl)-3-methyl-1H-pyrazole-5-carboxylic Acid] here?
**A.** 1 to 5 µM

**Q.** How did the EC50 turn out when `Cc1nn(-c2nc(-c3ccc(Cl)c(Cl)c3)c(SC(C)C)s2)c(C(=O)Nc2nnn[nH]2)c1-c1cc(C(F)(F)F)cc(C(F)(F)F)c1` [Compound 81, 4-(3,5-bis(trifluoromethyl)phenyl)-1-(4-(3,4-dichlorophenyl)-5-(isopropylthio)thiazol-2-yl)-3-methyl-N-(1H-tetrazol-5-yl)-1H-pyrazole-5-carboxamide] was run?
**A.** > 40 µM

**Q.** Which EC50 does the source give for `Cc1nnc(-c2c(C)nn(-c3nc(-c4ccc(Cl)c(Cl)c4)c(SC(C)C)s3)c2C(=O)O)s1` [Compound 82, 1-(4-(3,4-dichlorophenyl)-5-(isopropylthio)thiazol-2-yl)-3-methyl-4-(5-methyl-1,3,4-thiadiazol-2-yl)-1H-pyrazole-5-carboxylic acid] here?
**A.** > 40 µM

**Q.** For `COc1cc(C#N)cc(-c2c(C)nn(-c3nc(-c4ccc(Cl)c(Cl)c4)c(SC(C)C)s3)c2C(=O)O)c1` [Compound 83, 4-(3-cyano-5-methoxyphenyl)-1-(4-(3,4-dichlorophenyl)-5-(isopropylthio)thiazol-2-yl)-3-methyl-1H-pyrazole-5-carboxylic acid], which EC50 is on record?
**A.** 5 to 10 µM

**Q.** With `Cc1nn(-c2nc(-c3ccc(Cl)c(Cl)c3)c(SC(C)C)s2)c(C(=O)O)c1-c1cc(C#N)cc(C(F)(F)F)c1` [Compound 84, 4-(3-cyano-5-(trifluoromethyl)phenyl)-1-(4-(3,4-dichlorophenyl)-5-(isopropylthio)thiazol-2-yl)-3-methyl-1H-pyrazole-5-carboxylic Acid] as the compound, how does the EC50 read?
**A.** 1 to 5 µM

**Q.** For `COCc1cccc(-c2c(C)nn(-c3nc(-c4ccc(Cl)c(Cl)c4)c(SC(C)C)s3)c2C(=O)O)c1` [Compound 85, 1-(4-(3,4-dichlorophenyl)-5-(isopropylthio)thiazol-2-yl)-4-(3-(methoxymethyl)phenyl)-3-methyl-1H-pyrazole-5-carboxylic acid], which EC50 is on record?
**A.** 5 to 10 µM

**Q.** For `Cc1nn(-c2nc(-c3ccc(Cl)c(Cl)c3)c(SC(C)C)s2)c(C(=O)O)c1-c1c(Cc2ccccc2)noc1C` [Compound 86, 4-(3-benzyl-5-methylisoxazol-4-yl)-1-(4-(3,4-dichlorophenyl)-5-(isopropylthio)thiazol-2-yl)-3-methyl-1H-pyrazole-5-carboxylic Acid], which EC50 is on record?
**A.** 1 to 5 µM

**Q.** How did the EC50 turn out when `Cc1nn(-c2nc(-c3ccc(Cl)c(Cl)c3)c(SC(C)C)s2)c(C(=O)O)c1-c1cccc(CN(C)C)c1` [Compound 87, 1-(4-(3,4-dichlorophenyl)-5-(isopropylthio)thiazol-2-yl)-4-(3-((dimethylamino)methyl)phenyl)-3-methyl-1H-pyrazole-5-carboxylic acid] was run?
**A.** > 25 µM

**Q.** `Cc1nn(-c2nc(-c3ccc(Cl)c(Cl)c3)c(SC(C)C)s2)c(CO)c1-c1ccccc1` [Compound 88, (1-(4-(3,4-dichlorophenyl)-5-(isopropylthio)thiazol-2-yl)-3-methyl-4-phenyl-1H-pyrazol-5-yl)MeOH] was tested. Which EC50 did it give?
**A.** > 25 µM

**Q.** Which EC50 does the source give for `Cc1nn(-c2nc(-c3ccc(Cl)c(Cl)c3)c(SC(C)C)s2)c(C(=O)O)c1-c1ccc2c(c1)OCO2` [Compound 89, 4-(benzo[d][1,3]dioxol-5-yl)-1-(4-(3,4-dichlorophenyl)-5-(isopropylthio)thiazol-2-yl)-3-methyl-1H-pyrazole-5-carboxylic Acid] here?
**A.** 5 to 10 µM

**Q.** How did the EC50 turn out when `COc1ccnc(-c2c(C)nn(-c3nc(-c4ccc(Cl)c(Cl)c4)c(SC(C)C)s3)c2C(=O)O)n1` [Compound 90, 1-(4-(3,4-dichlorophenyl)-5-(isopropylthio)thiazol-2-yl)-4-(4-methoxypyrimidin-2-yl)-3-methyl-1H-pyrazole-5-carboxylic acid] was run?
**A.** > 25 µM
